Laboratory results published in US20030073618A1, “Compounds comprising disulfide-containing peptides and nitrogenous bases, and medical uses thereof” (priority 2001, published 2003).
Marks after values point to notes of the source that are not given here.

How the values were obtained:
hepatitis B virus (HBV) [1] = test: Efficacy study in chronic viral hepatitis B, 62 patients (Tables 47-49); assay type: in vivo, human
hepatitis B virus (HBV) [2] = test: as above; assay type: in vivo, human; conditions: month 1 (after treatment)
Source text: State of patient upon completion of treatment.

hepatitis C virus (HCV) = test: Efficacy study in chronic viral hepatitis C, 74 patients (Tables 54-55)
[3] = tested on: white rats with DMNA-induced liver cirrhosis; test: Experimental dimethylnitrosamine (DMNA)-induced liver cirrhosis in rats; assay type: in vivo
Protocol: The method of Jezequel, A. M. et al. was used to induce liver cirrhosis in the rats. (Dimethylnitrosamine-induced cirrhosis. Evidence for an immunological mechanism. J. […] DMNA was dissolved by normal saline. To obtain considerable cirrhosis 4 such injection cycles were sufficient. For morphologic examination after narcotized euthanasia samples of liver tissue from central and right side lobes were taken. The liver samples were fixated by mixture of formalin, alcohol and acetic acid. […] The van-Gison stained samples where collagen fibers had red color were used for the study. […] By number of pixels forming the selected objects a relative square occupied by developed collagen (connective tissue) in the liver tissue was calculated. The measurement results were statistically processed. The difference significance between mean samples using the Student criterion with significance level of p=0.05. The morphological alterations were assessed on the samples with blind marking reducing risk of aggravation of the study results. The pathologic process and agent efficacy were assessed by clinical signs (weight, appearance, ascites, motional activity, death) as well as morphologic ones after animal necropsy with following morphologic liver sample examination. After development of pathologic process, i.e. in 4 weeks after the DMNA introduction onset, all animals were randomized in 4 groups of 12 animals in each. […] The agents were introduced every other day intramuscularly, in femur muscle.

[4] = month 2 (1 month after treatment)
[5] = month 4 (3 months after treatment)

CC(C)(C)NC(=O)[C@@H]1C[C@@H]2CCCC[C@@H]2CN1C[C@@H](O)[C@H](Cc1ccccc1)NC(=O)[C@H](CC(N)=O)NC(=O)c1ccc2ccccc2n1 [Invirasa]
ALT in Chronic HBV Infection (hepatitis B virus (HBV) [1]; Baseline (before treatment)): 165.7 ± 17.0 U/L
HbsAg in Chronic HBV Infection (hepatitis B virus (HBV) [1]; Baseline (before treatment)): 137.0 ± 20.6 ng/mL
PCR (%) in Chronic HBV Infection (hepatitis B virus (HBV) [1]; Baseline (before treatment)): 100%
ALT in Chronic HBV Infection (hepatitis B virus (HBV) [1]; [4]): **71.4 ± 6.5 U/L
HbsAg in Chronic HBV Infection (hepatitis B virus (HBV) [1]; [4]): **112.2 ± 22.2 ng/mL
PCR (%) in Chronic HBV Infection (hepatitis B virus (HBV) [1]; [4]): **60.0* %
ALT in Chronic HBV Infection (hepatitis B virus (HBV) [1]; [5]): **71.8 ± 7.4 U/L
HbsAg in Chronic HBV Infection (hepatitis B virus (HBV) [1]; [5]): **172.0 ± 14.5 ng/mL
PCR (%) in Chronic HBV Infection (hepatitis B virus (HBV) [1]; [5]): **60.0%
ALT in Chronic HBV Infection (hepatitis B virus (HBV) [2]): **90.8 ± 5.5 U/L
HbsAg in Chronic HBV Infection (hepatitis B virus (HBV) [2]): **109.0 ± 54.5 ng/mL
PCR (%) in Chronic HBV Infection (hepatitis B virus (HBV) [2]): **70.0* %

Cc1cn([C@H]2C[C@H](N=[N+]=[N-])[C@@H](CO)O2)c(=O)[nH]c1=O [Retrovir]
ALT in Chronic HCV Infection (hepatitis C virus (HCV); Baseline (before treatment)): 180 ± 20.0 U/L
ALT in Chronic HCV Infection (hepatitis C virus (HCV); month 1 (after treatment)): **132.0 ± 51.5 U/L
ALT in Chronic HCV Infection (hepatitis C virus (HCV); [4]): **108 ± 40.3 U/L
ALT in Chronic HCV Infection (hepatitis C virus (HCV); [5]): **90.0 ± 25.2 U/L

C[S+](CC[C@H](N)C(=O)[O-])C[C@H]1O[C@@H](n2cnc3c(N)ncnc32)[C@H](O)[C@@H]1O (some centres unmarked) [Heptral, S-adenosyl-methionine]
Rat weight ([3]; 1 treatment week): 191.0 g
Rat weight ([3]; 3 treatment weeks): 212 g
Relative square of the connective tissue in a liver section ([3]; 3 weeks after cirrhosis modeling completion): 8.215 ± 0.751%
Collagen amount lowered comparing to the normal saline control (times) ([3]; 6-week dosing): 1.7 times
Rat weight ([3]; 6 treatment weeks): 232 g
Relative square of the connective tissue in a liver section ([3]; 6 weeks after cirrhosis modeling completion): 7.781 ± 0.943 %
Decrease of liver fibrosis-formation rate ([3]; comparison agent): 35%
Collagen amount lowered comparing to the normal saline control (times) ([3]; treatment for 3 weeks): 1.1 times

Nc1ccn([C@H]2CC[C@@H](CO)O2)c(=O)n1 [Zalzitabin]
PCR (%) in Chronic HCV Infection (hepatitis C virus (HCV); Baseline (before treatment)): 100%
PCR (%) in Chronic HCV Infection (hepatitis C virus (HCV); month 1 (after treatment)): **73.9* %
PCR (%) in Chronic HCV Infection (hepatitis C virus (HCV); [4]): **56.5* %
PCR (%) in Chronic HCV Infection (hepatitis C virus (HCV); [5]): **60.9* %

Cc1cn([C@H]2C[C@H](N=[N+]=[N-])[C@@H](CO)O2)c(=O)[nH]c1=O [Zidovudine]
PCR (%) in Chronic HCV Infection (hepatitis C virus (HCV); Baseline (before treatment)): 100%
PCR (%) in Chronic HCV Infection (hepatitis C virus (HCV); month 1 (after treatment)): **54.5* %
PCR (%) in Chronic HCV Infection (hepatitis C virus (HCV); [4]): **63.6* %
PCR (%) in Chronic HCV Infection (hepatitis C virus (HCV); [5]): **59.1* %
